Reference: patent publication US7514432B2, “Compounds and methods of treating cell proliferative diseases, retinopathies and arthritis” (Exonhit Therapeutics SA, priority 2003, dated 2009)

How the values were obtained:
REF cells = assay: Wound healing assay (time-lapse microscopy); type: cell-based; conditions: time lapse 8 hours
Experimental: FIG. 4: Migration assays. (A) Wound healing assay in REF cells. 7.6 10^4 cells were plated on coverslips 48 hours before the experiment. The cells were pre-treated for 30 min. with the compounds, and then a scrape was done using a pipette tip. The scraped coverslips in treatment medium were put under a thermostated microscope coupled to a video camera. Movies were analyzed as described in material and methods, and velocity and total distance covered by the cells were evaluated. Bar graphs represent the mean±SEM of 2 to 4 experiments. (B) Boyden chamber migration assay in HMEC1, NIH3T3 and MDA-MB-231 cells. […] After labeling, cells were washed with HBSS and fluorescence was read in a fluorescence plate reader. Fluorescence values were normalized against the fluorescence obtained for the 1% DMSO control. […]
This assay has been described by Nobes & Hall (J. Cell Biol., 1999). • Preparation of REF cells: REF cells are prepared from 15-18 E14 embryos. […] Only the torso is kept, sliced into small squares, washed, treated with trypsin-EDTA for 20 min. at 37° C., resuspended in medium, counted and plated. […] Microscope images were collected every 5 minutes and recorded using the OpenLab software. When the assay is terminated (after 4 to 24 hours), pictures and movies are analyzed using the Metamorphe software. […] The position of each point was recorded. […]

[1] = tested on: intersegmental vessels of zebrafish embryos; assay: In vivo zebrafish angiogenesis assay; conditions: embryos 20 hpf, incubated 28 hours; for max inhibition of intersegmental vessels formation: 1% DMSO
Experimental: FIG. 6: In vivo zebrafish angiogenesis assay. 20 Hours post fertilization (hpf) embryos Were incubated with compounds and 1% DMSO for 28 hours. Vessels were stained with NBT/BCIP and morphometric analyses were done using the Adobe Photoshop software. For each condition, 10 embryos were analyzed and results were expressed as means±SEM. (A) dose response curves. (B) table presenting the 50% and max inhibition of intersegmental vessels formation together with the percentage of dead embryos (see material and methods).
In vivo zebrafish angiogenesis model: This assay is a viable and validated whole animal model for screening small molecules that affect blood vessel formation (Serbedzija et al, Angiogenesis, 1999). The study was subcontracted to Phylonix Pharmaceutical, Cambridge, Mass., USA. • Drug treatment: Intersegmental vessels (ISVs) in zebrafish are well accepted as angiogenic vessels, and they are easily observed using microscopy. By 20 hpf stage, the major vasculogenic vessels (dorsal aorta and caudal vein) have developed. By 48 hours post fertilization (hpf), ISVs have formed by sprouting from the dorsal aorta and caudal vein. Therefore, 20 hpf was used as the starting point and 48 hpf as the end point for drug treatment. Zebrafish embryos staged at 20 hpf were incubated with compound solution at 28° C. for 28 hours in 6-well plates, 20 embryos per well. Embryos treated with 1% DMSO and 5 μM Flavopiridol were used as negative and positive controls, respectively. • Microscopy: All light microscopy studies were performed using a ZEISS Stemi 2000-C stereomicroscope (Zeiss), equipped with a digital spot camera (Diagnostic Instruments Inc.). Images were further processed and analyzed using Adobe Photoshop 7.0 (Adobe). • Whole mount EAP staining: Embryos were fixed in 4% PFA for 2 hours at room temperature, and dehydrated in 100% ethanol following standard procedures. Embryos were then rehydrated, blocked, and stained with NBT/BCIP. After washing, embryos were examined by microscopy. • Quantitation of anti-angiogenic effects: To quantitate anti-angiogenic effects, 5 well developed trunk ISVs located around the anal pore were selected and morphometric analysis [area (pixel)× signal intensity] was performed using Adobe Photoshop. For each condition, 10 embryos were assessed and the mean value of 10 images was calculated using EXCEL software program (Microsoft Corporation). To calculate the inhibitory effect, the mean value of signal (S) in 5 ISVs in drug treated embryos was divided by mean value of S in DMSO control embryos, and calculated as % inhibition using the following formula: […]

Row | Compound | decrease of migration of REF cells (velocity and total distance covered) (REF cells; 30 μM) | anti-angiogenic activity in the zebrafish embryo [1] | toxicity in zebrafish embryos [1] | max inhibition of intersegmental vessels formation [1] | decrease of migration of REF cells (velocity and total distance covered) (REF cells; 10 μM)
1 | Cl.Cl.O=c1cc(CN2CCOCC2)occ1OCCCCCSc1ccnc2cc(C(F)(F)F)ccc12 [EHT 1864, 5-(5-(7-(Trifluoromethyl)quinolin-4-ylthio)pentyloxy)-2-(morpholinomethyl)-4H-pyran-4-one dihydrochloride] | about 48% | dose-dependent anti-angiogenic activity | much less toxic than reference compounds Flavopiridol and SU-5416 | 77% | –
2 | CN1CCN(Cc2cc(=O)c(OCCCCCSc3ccnc4cc(C(F)(F)F)ccc34)co2)CC1.Cl.Cl.Cl [EHT 9241, 5-(5-(7-(Trifluoromethyl)quinolin-4-ylthio)pentyloxy)-2-((4-methylpiperazin-1-yl)methyl)-4H-pyran-4-one trihydrochloride] | – | – | – | 40% | 36%
